In experiment [1] the test system is murine spleen cells, LPS induced (B-cells). Description: LPS induced lymphocyte proliferation in mouse spleen cells in vitro. It counts as cell-based, mouse (Balb/C). The following applies: for effect on B-cell response / LPS induced proliferation, in words: in vitro; for activity at 25 µg/mL: drug 25,000 ng/ml. From the text: (§1) (1) Mitogen-(Lipopolysaccharide, LPS or Con A) induced lymphocyte proliferation using murine spleen cells (in vitro)
(§2) 1. […] LPS is a mitogen which acts preferentially on B-cells. […] Con A is considered a T-cell mitogen.
(§3) 1. Balb/C male mice, 7-8 weeks old, are used up to 20-24 weeks of age.
(§4) 2. The animals are sacrificed by cervical dislocation and the animals' left sides swabbed with 70% ethanol. An incision is made between the lower ribs and pelvis, laterally from front to back, and the skin retracted. Aseptic technique is to be observed from this point on.
(§5) 3. The spleen is gently removed with sterile forceps. […] When all spleens have been collected and cleaned they are placed in a second petri dish containing 3 ml cold RPMI.
(§6) 4. Spleen cell suspensions are prepared by gentle mincing of the tissue with a sterile blade and filtering through #100 stainless steel mesh.
(§7) 6. An aliquot of the above suspension is prepared for cell counting as follows: 0.1 ml of suspension is diluted to 1.0 ml with 3% acetic acid and let stand at room temperature for at least five minutes. The sample is then diluted 1:100 with "Isoton II" (Curtis-Matheson Co.) and counted in a coulter counter.
(§8) MURINE SPLENOCYTE STIMULATION WITH CONCANAVALIN A (CON A), LIPOPOLYSACCHARIDE (LPS), AND ALLOGENEIC SPLENOCYTES (LMC).
(§9) There is set forth below the standard procedure which should be modified according to the solubility and other properties of the particular compound tested.
(§10) Add ~10 ml RPMI to 1.79 g HEPES and vortex until completely dissolved. […] Allow to warm temperature before use.
6. LPS (Sigma, E, coli serotype #011:84)--~1 mg/ml. […] Remove ~10 ml for dissolving HEPES (0.358 g) and filter HEPES solution. Add four 25 mg bottles of LPS to remaining media and incubate at 37° C. for 1 hour. Filter through 0.22 μm filters, add filtered HEPES, aliquot in 2 ml and store at -70° C.
(§11) 8. Tritiated thymidine (^3 H-TdR, Schwartz-Mann, 6 Ci/mM). Remove a slightly larger volume of ^3 H-TdR than needed from vial with a 1 cc syringe and place volume in the cap of a small sterile plastic tube. […] Vortex thoroughly before adding to plates.
(§12) 1. Animals are sacrificed by cervical dislocation killing one from each group and processing the cells individually before killing the next animal. Swab each animal with 70% ethanol before surgery. […] Use 8 vertical strokes (or enough to break up all tissue) with Teflon-tipped homogenizer. Filter each sample through a 100 mesh screen into a 50 ml tube. […] After all samples have been spun, vortex each briefly and let sit for 1 hour. Vortex each sample ~5 seconds, waiting ~10 seconds between each sample. Let sit 5 minutes, then pipet cell suspension into 5 ml (12×75 mm) tube being careful not to remove any sediment. Remove 50 ul cell suspension using micropipetter, carefully wipe pipet tip with kimwipe and pipet into 20 ml Isoton in Coulter counter vial, rinsing pipet several times in the Isoton. Add 6 drops of CyMet and swirl vial to mix. Use the following Coulter counter settings: Amplification-1, Threshold-10, and Aperture Current-1. Clean counter with Isoterge the morning of experiment and count background before standardizing with CH 0.60 Hematology Controls. After cell counts are obtained, dilute to 6×10^6 cells/ml with supplemented RPMI and aliquot into 3 tubes for the 3 assays.
(§13) 1. Pipet 100 μl control media (supplemented RPMI) or appropriate dilution of mitogen (starting with lowest concentration) into microtiter plate using Titertek multi-channel pipetter. Place plates in 37° C. CO2 incubator with CO2 set at 0.5 after each plate has been pipetted. Pipet 100 μl responder cells into wells starting with most dilute mitogen concentration. Place plates in incubator as they are filled and after all plates are in incubator, let sit for 10-20 minutes. Wrap plates with plastic wrap, recover with top, replace in incubator, and reset CO2 to ~0.05. Save ~50 ml supplemented RPMI at 4° C. for thymidine dilution.

The test system of experiment [2] is murine spleen cells, Con A induced (T-cells). Description: Con A induced lymphocyte proliferation in mouse spleen cells in vitro. The conditions noted are these: for activity at 25 µg/mL: drug 25,000 ng/ml; for effect on Con A induced proliferation (T-cell response), in words: in vitro. It counts as cell-based, mouse (Balb/C).
Excerpt: as §1, §2, §3, §4, §5, §6, §7, §8, §9, §10
5. Con A (Calbiochem)--100 mg/ml NaCl injection solution (McGaw), filter, aliquot in 1 ml, and store at -70° C.
as §11, §12
as §13, with “dilution. After ~44 hours warm the RPMI to 37° C. in incubator. Dilute tritiated Thymidine 1:100 in warmed RPMI. Use Titertek to add 50 μl Thymidine to each well. Treat plates as above and incubate overnight (~18 hours).” for “dilution.”

The test system of experiment [3] is antibody production to sheep red blood cells (SRBC). Description: antigen (SRBC) dependent antibody synthesis in vivo (IgM plaques). Set-up: species or system Balb/C mice. The conditions noted are these: for effect on antibody production in vivo, in words: SRBC immunized mice; for % change from control, antibody response to SRBC: Table X. On the procedure: (3) Antigen (sheep red blood cell, SRBC) dependent antibody synthesis (in vivo)
as §9
1. A solution containing 500 μg/ml NPT is prepared by adding a preweighed amount of the drup powder to sterile BPS (phosphate buffered saline) and sonicating the solution for 30 minutes.
1. NPT drug solution is made by dissolving 500 μg NPT per mil PBS.
1. A 1.4% suspension of agarose in PBS (7 g in 500 ml) is autoclaved for 15 min.
1. Mice are immunized as follows: sheep blood (sheep #23) is received weekly from Hyland labs. It is asceptically collected in two volumes of Alseviers to one volume of blood.
6. The cell count is determined and the stock solution is diluted to 4×10^7 cells/ml. This final suspension is used for immunization.
7. Each mouse is immunized by i.v. injection into the lateral tail vein (warmed in a 50° C. water bath for veinous dilation) with 0.1 ml SRBC (sheep red blood cell) suspensions; the final concentration of SRBC's is 4×10^6 per mouse.
1. Mice are treated by i.p. injection on days […], 1, 2, and 3. A syringe (1 cc) is fitted with a one-half inch, 26 gauge needle. The needle is introduced at a 45° angle along the right side of the linea alba. A 0.2 ml volume is given to both drug and control treated groups.
2. Drug groups are given 0.2 ml of a desired concentration NPT solution which, for a 20 g mouse, is […].
1. Spleens are removed asceptically and placed individually in Falcon #2025 tissue culture tubes containing 3 ml MEM. The tubes are then stored on ice.
2. Spleens are homogenized in the same tube with a teflon pestle attached to a G. K. Heller variable speed reversible motor connected with a G. K. Heller GT-21 motor controller setting #6.
6. The cell count is obtained and the stock suspension is diluted to 1×10^7 cells/ml. The Coulter counter threshhold is set at 10. Red cells are lysed with three drops of Zap isoton.
1. Thirty-five hundredths gram agarose and 0.53 grams MEM powder are placed into an Erlenmeyer flask. Fifty ml of distilled H2 O is then added to the flask.
1. Five ml sheep blood (same batch as used for immunization) is washed three times in PBS using an IEC Clinical Standard Centrifuge, speed #4 (2800 RPM) for 10 min.
1. Agar plates are removed from refrigerator and allowed to warm to room temperature. They are labeled in triplicate for each experimental group.
2. Agar-filled tubes are removed from the water bath. One-tenth of the 10% SRBC's and 0.1 ml spleen cell suspension are added to each agar tube. The tubes are agitated on a Vortex mixer.
3. The contents of the tubes are poured immediately into agar base plates and swirled until a smooth layer is formed. The plates are placed on a level surface until the agar solidifies.
4. The plates are incubated at 37° C. in a humidified atmosphere of 5% CO2 and 95% air for 90 min.
6. Plates are removed from incubator and 1 ml of the diluted complement is added to each plate.
7. Plates are then incubated another 30-45 minutes at 37° C. Plates are then removed from incubator and counted using oblique light.

Experiment [4] relates to splenocytes from athymic mice (theta positive cells). Description: induction of theta positive cells in splenocytes from athymic (nude) mice in vitro. It counts as cell-based. The following applies: in vitro. From the text:
(4) Induction of theta positive cells in nude mice (in vitro).

Where [5] appears, read: 0.05 mg/kg, *P ≤ 0.001 where starred.
The mark [6] stands for this setting: 0.5 mg/kg, *P ≤ 0.001 where starred.
[7] abbreviates: Mus musculus, B-cell, LPS 5 μg/ml, read-out: LPS D/C (maximum values).
The mark [8] stands for this setting: Mus musculus, Con A .375 μg/ml, read-out: Con A D/C (maximum values).
The mark [9] stands for this setting: 5.0 mg/kg, *P ≤ 0.001 where starred, NPT 16485 N.S.

Data on seven compounds can be found in patent publication US4510144A, “Methods of imparting immunomodulating activity with dihydrothiazolo purine derivatives” (Newport Pharmaceuticals International, priority 1982, dated 1985).

Molecules are shown by their SMILES. Entries after “also recorded” stand apart in the source; their conditions may differ.

For `O=c1c2nc3n(c2nc2n1CCS2)CCS3` [NPT 16449, 6-hydroxy-Bis-(3,4-dihydrothiazolo-8,9-dihydrothiazolo)-[3,2e-2,3f]purine], the activity at 21 µg/mL was found to be 157% in experiment [1] (Mus musculus, B-cell, drug 21,000 ng/ml, LPS 5 μg/ml, read-out: LPS D/C (maximum values)) and 100% in experiment [2] (Mus musculus, drug 21,000 ng/ml, Con A .375 μg/ml, read-out: Con A D/C (maximum values)). For the same compound, the “effect on B-cell response / LPS induced proliferation, in words” value in experiment [1] was “enhance B-cell proliferation”; in experiment [1] (listed as IVa), “stimulating the B-cell response”. Also, the “effect on antibody production in vivo, in words” value (“effect on antibody production” below) in experiment [3] is listed as “enhancement of production of specific antibodies in vivo”. In addition, the “% change from control, antibody response to SRBC” value (from here on “% change from control”) in experiment [3] (setting [5]) is listed as “+183%”; in experiment [3] (setting [6]), “+59%”.
In the case of `CSc1nc(O)c2nc3n(c2n1)CCS3` [NPT 16472, 3-hydroxy-5-methylmercapto-7,8-dihydrothiazolo-[3,2e]-purine], the activity at 0.01 µg/mL was determined as 131% in experiment [1] (Mus musculus, B-cell, drug 10 ng/ml, LPS 5 μg/ml, read-out: LPS D/C (maximum values)) and 100% in experiment [2] (Mus musculus, drug 10 ng/ml, Con A .375 μg/ml, read-out: Con A D/C (maximum values)). The “effect on B-cell response / LPS induced proliferation, in words” value in experiment [1] was “stimulating the B-cell response”. For the same compound, the “% change from control” value in experiment [3] (dose = 0.035 mg/kg, P < 0.05) is given as “+13%”.
For the compound `Oc1c2ncnc-2nc2n1CCS2` [NPT 16450, 6-hydroxy-7,8-dihydrothiazolo-[3,2a]-purine], the values for the activity at 25 µg/mL in experiment [1] (setting [7]) and in experiment [2] (setting [8]) were 118% and 107%, respectively. For the same compound, the entries for the “% change from control” value in experiment [3] (setting [5]), in experiment [3] (setting [6]) and in experiment [3] (setting [9]) were -64%, “+15%” and “+36%”, respectively.
With `CSc1ncnc2c1nc1n2CCS1` [NPT 16439, 3-methylmercapto-7,8-dihydrothiazolo-[3,2e]-purine], the activity at 4.5 µg/mL in experiment [1] (Mus musculus, B-cell, drug 4,500 ng/ml, LPS 5 μg/ml, read-out: LPS D/C (maximum values)) was 100%; in experiment [2] (Mus musculus, drug 4,500 ng/ml, Con A .375 μg/ml, read-out: Con A D/C (maximum values)) it was 57%. Besides, the results for the “effect on Con A induced proliferation (T-cell response), in words” value in experiment [2], in experiment [2] (listed as 16439) and in experiment [2] (listed as Ib) were “potent inhibitors”, “capable of inhibiting” and “inhibiting the T-cell response”, respectively. Further, the “effect on antibody production” value in experiment [3] is recorded as “potent inhibitor of antibody production”; in experiment [3] (listed as 16439), “capable of inhibiting”. The “% change from control” value was -40% in experiment [3] (setting [5]) and -63% in experiment [3] (dose = 0.2 mg/kg).
As for `Oc1ncnc2nc3n(c12)CCS3` [NPT 16485, 6-hydroxy-7,8-dihydrothiazolo-[2,3f]-purine], the activity at 25 µg/mL worked out at 185% in experiment [1] (setting [7]) and 118% in experiment [2] (setting [8]). Besides, the “effect on B-cell response / LPS induced proliferation, in words” value is listed as “enhance B-cell proliferation” in experiment [1] and “stimulating the B-cell response” in experiment [1] (listed as IIa). Besides, in experiment [3], the “effect on antibody production” value is reported as “enhancement of production of specific antibodies in vivo”. The figures for the “% change from control” value in experiment [3] (setting [5]), in experiment [3] (setting [6]) and in experiment [3] (setting [9]) were “+28%”, “+134%” and “+1.7%”, respectively.
Take `Nc1ncnc2c1nc1n2CCS1` [NPT 16422, 3-amino-7,8-dihydrothiazolo-[3,2e]-purine]: the activity at 25 µg/mL in experiment [1] (setting [7]) stood at 37%; in experiment [2] (setting [8]), 20%. In addition, the “effect on Con A induced proliferation (T-cell response), in words” value in experiment [2] is on record as “potent inhibitors; also recorded: capable of inhibiting”. The “effect on antibody production” value in experiment [3] is “capable of inhibiting”.
On to `c1ccc([C@H]2CN3CCSC3=N2)cc1` [Levamisole, reference compound], for which, in experiment [4], the “production of theta positive (T) cells, in words” value was “does not possess this property”.
